In assay [1] the target is T1, Farnesyl protein transferase (FPT) (Rattus norvegicus, UniProt Q02293+Q04631).
T1 construct: Farnesyl protein transferase (FPT) was partially purified from rat brain; from tissue; host or cells: rat brain
Kind of assay: In vitro enzyme assay: inhibition of farnesyl protein transferase (transfer of [3H]farnesyl from [3H]farnesyl pyrophosphate to Ras-CVLS). Type of assay: biochemical. From the text:
1. In vitro enzyme assays: Inhibition of farnesyl protein transferase and geranylgeranyl protein transferase.
Farnesyl protein transferase (FPT) was partially purified from rat brain by ammonium sulfate fractionation followed by Q-Sepharose (Pharmacia, Inc.) anion exchange chromatography essentially as described by Yokoyama et al (Yokoyama, K., et al., (1991), A protein geranylgeranyltransferase from bovine brain: Implications for protein prenylation specificity, Proc. Natl. Acad. Sci USA 88: 5302-5306, the disclosure of which is incorporated herein by reference thereto). Human famesyl protein transferase was also expressed in E. coli, using cDNA clones encoding both the a and b subunits. The methods used were similar to those published (Omer, C. et al., (1993), Characterization of recombinant human farnesyl protein transferase: Cloning, expression, famesyl diphosphate binding, and functional homology with yeast prenyl-protein transferases, Biochemistry 32:5167-5176). Human famesyl protein transferase was partially-purified from the soluble protein fraction of E. coli as described above. […] Two forms of val^12-Ha-Ras protein were prepared as substrates for these enzymes, differing in their carboxy terminal sequence. One form terminated in cysteine-valine-leucine-serine (Ras-CVLS) the other in cystein-valine-leucine-leucine (Ras-CVLL). Ras-CVLS is a substrate for the famesyl protein transferase while Ras-CVLL is a substrate for geranylgeranyl protein transferase I. The cDNAs encoding these proteins were constructed so that the proteins contain an amino-terminal extension of 6 histidine residues. Both proteins were expressed in Escherichia coli and purified using metal chelate affinity chromatography. The radiolabelled isoprenyl pyrophosphate substrates, [^3H]farnesyl pyrophosphate and [^3H]geranylgeranyl pyrophosphate, were purchased from DuPont/New England Nuclear.
Several methods for measuring famesyl protein transferase activity have been described (Reiss et al 1990, Cell 62: 81; Schaber et al 1990, J. Biol. Chem. 265: 14701; Manne et al 1990, PNAS 87: 7541; and Barbacid & Manne 1993, U.S. Patent No. 5,185,248). […] The reaction was allowed to proceed for 30 minutes at room temperature and then stopped with 0.5 ml of 4% sodium dodecyl sulfate (SDS) followed by 0.5 ml of cold 30% TCA. Samples were allowed to sit on ice for 45 minutes and precipitated Ras protein was then collected on GF/C filter paper mats using a Brandel cell harvester. Filter mats were washed once with 6% TCA, 2% SDS and radioactivity was measured in a Wallac 1204 Betaplate BS liquid scintillation counter. Percent inhibition was calculated relative to the DMSO vehicle control.

Assay [2] concerns Ras processing in COS monkey kidney cells. Kind of assay: Cell-based assay: transient expression of val12-Ha-Ras-CVLS in COS cells, effect on Ras processing (immunoblot). As to conditions: Primates, read-out: INHIBITION OF RAS PROCESSING IC50. From the text: 2. Cell-Based Assay: Transient expression of val^12-Ha-Ras-CVLS and val^12-Ha-Ras-CVLL in COS monkey kidney cells: Effect of famesyl protein transferase inhibitors on Ras processing and on disordered cell growth induced by transforming Ras.
COS monkey kidney cells were transfected by electroporation with the plasmid pSV-SPORT (Gibco/BRL) containing a cDNA insert encoding either Ras-CVLS or Ras-CVLL, leading to transient overexpression of a Ras substrate for either famesyl protein transferase or geranylgeranyl protein transferase I, respectively (see above).
Following electroporation, cells were plated into 6-well tissue culture dishes containing 1.5 ml of Dulbecco's-modified Eagle's media (GIBCO, Inc.) supplemented with 10% fetal calf serum and the appropriate famesyl protein transferase inhibitors. After 24 hours, media was removed and fresh media containing the appropriate drugs was re-added.
48 hours after electroporation cells were examined under the microscope to monitor disordered cell growth induced by transforming Ras. Cells expressing transforming Ras become more rounded and refractile and overgrow the monolayer, reminiscent of the transformed phenotype. Cells were then photographed, washed twice with 1 ml of cold phosphate-buffered saline (PBS) and removed from the dish by scraping with a rubber policeman into 1 ml of a buffer containing 25 mM Tris, pH 8.0; 1 mM ethylenediamine tetraacetic acid; 1 mM phenylmethylsulfonyl fluoride; […]; and 0.1 mM pepstatin. Cells were lysed by homogenization and cell debris was removed by centrifugation at 2000 × g for 10 min.
Cellular protein was precipitated by addition of ice-cold trichloroacetic acid and redissolved in […] of SDS-electrophoresis sample buffer. Samples ([…]) were loaded onto 14% polyacrylamide minigels (Novex, Inc.) and electrophoresed until the tracking dye neared the bottom of the gel. Proteins resolved on the gels were electroblotted onto nitrocellulose membranes for immunodetection.
Membranes were blocked by incubation overnight at 4°C in PBS containing 2.5% dried milk and 0.5% Tween-20 and then incubated with a Ras-specific monoclonal antibody, Y13-259 (Furth, M.E., et al., (1982), Monoclonal antibodies to the p21 products of the transforming gene of Harvey murine sarcome virus and of the cellular ras gene family, J. Virol. 43: 294-304), in PBS containing 1% fetal calf serum for one hour at room temperature. After washing, membranes were incubated for one hour at room temperature with a 1:5000 dilution of secondary antibody, rabbit anti-rat IgG conjugated to horseradish peroxidase, in PBS containing 1% fetal calf serum. The presence of processed and unprocessed Ras-CVLS or Ras-CVLL was detected using a colorimetric peroxidase reagent (4-chloro-1-naphthol) as described by the manufacturer (Bio-Rad).
On the technique in general: A western blot detects proteins with antibodies after separation by electrophoresis.

Where [3] appears, read: FPT INHIBITION; read-out: FPT IC50.

Read-outs that look alike come from different tables or passages of the source.

A word on the IC50: it is the concentration that gives 50% inhibition. Broadly, the inhibition is the percentage by which the read-out fell short of the control.

T1 sequence (Q02293 whole entry, one chain of several): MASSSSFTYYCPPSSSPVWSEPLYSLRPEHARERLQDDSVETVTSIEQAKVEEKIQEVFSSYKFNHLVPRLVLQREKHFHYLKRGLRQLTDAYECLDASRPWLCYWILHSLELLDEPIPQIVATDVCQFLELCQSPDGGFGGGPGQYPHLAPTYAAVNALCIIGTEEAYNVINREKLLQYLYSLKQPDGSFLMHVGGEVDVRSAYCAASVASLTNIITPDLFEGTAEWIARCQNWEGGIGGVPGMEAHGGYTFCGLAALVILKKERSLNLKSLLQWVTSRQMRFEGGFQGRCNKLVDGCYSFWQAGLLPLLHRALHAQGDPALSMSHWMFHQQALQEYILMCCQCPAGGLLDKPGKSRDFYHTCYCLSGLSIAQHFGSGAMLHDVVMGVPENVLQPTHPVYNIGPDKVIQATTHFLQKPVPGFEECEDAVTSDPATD

Take `O=C(CN1CCCC1=O)N1CCC(C2c3ncc(Br)cc3CCc3cc(Cl)cc(Cl)c32)CC1` (single isomer, unassigned) [Example 10]: the IC50 in assay [1] (setting [3]) was 0.019 µM; in assay [2] (ACTIVITY IN COS CELLS), 0.5 µM.

`O=C(NCCCC(=O)N1CCC(C2c3ncc(Br)cc3CCc3cc(Cl)cc(Cl)c32)CC1)c1cccnc1` (single isomer, unassigned) [Example 18]: the inhibition at 0.093 µM in assay [1] (@ 93 nM; read-out: FPT inhibition (percent inhibition)) was determined as 9%. For the same molecule, in assay [2] (ACTIVITY IN COS CELLS), the IC50 amounted to 0.54 µM.

Take `O=C(CCC(=O)N1CCC(C2c3ncc(Br)cc3CCc3cc(Cl)cc(Cl)c32)CC1)N1CCCC1` (single isomer, unassigned) [Example 14]: the IC50 was found to be 0.016 µM in assay [1] (setting [3]) and 0.25 µM in assay [2] (ACTIVITY IN COS CELLS).

Regarding `CN(C)C(=O)CCC(=O)N1CCC(C2c3ncc(Br)cc3CCc3cc(Cl)cc(Cl)c32)CC1` (single isomer, unassigned) [Example 13], the IC50 in assay [1] (setting [3]) worked out at 0.015 µM; in assay [2] (ACTIVITY IN COS CELLS) it was 0.2 µM.

Regarding `O=C(O)CCCCCC(=O)N1CCC([C@H]2c3ncc(Br)cc3CCc3cc(Cl)cc(Br)c32)CC1` [Example 58, (+)-SODIUM 4-(3,10-DIBROMO-8-CHLORO-6,11-DIHYDRO-5H-BENZO[5,6]CYCLO-HEPTA[1,2-b]PYRIDIN-11(R)-YL)-OMEGA-OXO -1-PIPERIDININE HEPTANOATE], the IC50 in assay [1] (setting [3]) is 0.0091 µM; in assay [2] (COS), 0.3 µM.

Consider `CN(C)CCCC(=O)N1CCC(C2c3ncc(Br)cc3CCc3cc(Cl)cc(Br)c32)CC1` (single isomer, unassigned; (+)) [Example 2, (+)-4-(3,10-DIBROMO-8-CHLORO-6,11-DIHYDRO-5H-BENZO[5,6]CYCLO-HEPTA[1,2-b]PYRIDIN-11-YL)-1-[4-(DIMETHYLAMINO)-1-OXOBUTYL]PIPERIDINE], for which the figures for the concentration for half-maximal inhibition (IC50) in assay [1] (setting [3]) and in assay [2] (ACTIVITY IN COS CELLS) were 0.004 µM and 0.013 µM, respectively.

Turning to `O=C(CCCN1C(=O)c2ccccc2C1=O)N1CCC(C2c3ncc(Br)cc3CCc3cc(Cl)cc(Br)c32)CC1` (single isomer, unassigned; (+)) [Example 32, (+)-4-(3,10-DIBROMO-8-CHLORO-6,11-DIHYDRO-5H-BENZO[5,6]CYCLO-HEPTA[1,2-b]PYRIDIN-11-YL)-1-[4-(1,3-DIHYDRO-1,3-DIOXO-2H-ISOINDOL-2-YL)-1-OXOBUTYL)PIPERIDINE], in assay [1] (@ 88 nM; read-out: FPT inhibition (percent inhibition)), the inhibition at 0.088 µM was 12%.

As to `NC(=O)CCCC(=O)N1CCC([C@H]2c3ncc(Br)cc3CCc3cc(Cl)cc(Br)c32)CC1` [Example 53, (+)-4-(3,10-DIBROMO-8-CHLORO-6,11-DIHYDRO-5H-BENZO[5,6]CYCLO-HEPTA[1,2-b]PYRIDIN-11(R)-YL)-DELTA-OXO-1-PIPERIDININE PENTANAMIDE], the IC50 in assay [1] (setting [3]) was found to be 0.01 µM.

Consider `O=C(CCCC(=O)N1CCC(C2c3ncc(Br)cc3CCc3cc(Cl)cc(Cl)c32)CC1)NCc1ccccc1` (single isomer, unassigned) [Example 21], for which the “FPT inhibition (percent inhibition)” value in assay [1] (@ 0.06 µg/µL) is on record as 35%@ 0.06 µg/µL.

As for `O=C(NCCCC(=O)N1CCC(C2c3ncc(Br)cc3CCc3cc(Cl)cc(Cl)c32)CC1)c1ccncc1` (single isomer, unassigned) [Example 24], in assay [1] (@ 0.06 µg/µL), the “FPT inhibition (percent inhibition)” value is 20 %@ 0.06 µg/µL.

For the molecule `O=C(NCCCC(=O)N1CCC(C2c3ncc(Br)cc3CCc3cc(Cl)cc(Cl)c32)CC1)Nc1ccccc1` (single isomer, unassigned) [Example 16], the IC50 in assay [1] (setting [3]) was above 0.1 µM.

Take `CC(C)(C)OC(=O)NCCCC(=O)N1CCC(C2c3ncc(Br)cc3CCc3cc(Cl)cc(Cl)c32)CC1` (single isomer, unassigned) [Example 25]: the inhibition at 0.33 µM in assay [1] (@ 330nM; read-out: FPT inhibition (percent inhibition)) turned out to be 47%.

As for `NC(=O)CCC(=O)N1CCC([C@H]2c3ncc(Br)cc3CCc3cc(Cl)cc(Br)c32)CC1` [Example 50, (+)-4-(3,10-DIBROMO-8-CHLORO-6,11-DIHYDRO-5H-BENZO[5,6]CYCLO-HEPTA[1,2-b]PYRIDIN-11(R)-YL)-GAMMA-OXO-1-PIPERIDININE BUTANAMIDE], in assay [1] (setting [3]), the IC50 is 0.014 µM.

Take `O=C(O)CCCC(=O)N1CCC([C@H]2c3ncc(Br)cc3CCc3cc(Cl)cc(Br)c32)CC1` [Example 52, (+)-SODIUM 4-(3,10-DIBROMO-8-CHLORO-6,11-DIHYDRO-5H-BENZO[5,6]CYCLO-HEPTA[1,2-b]PYRIDlN-11(R)-YL)-DELTA-OXO-1-PI[…]]: the IC50 in assay [1] (read-out: FPT IC50; FPT INHIBITION) was 0.044 µM.

Turning to `NC(=O)CCCCC(=O)N1CCC([C@H]2c3ncc(Br)cc3CCc3cc(Cl)cc(Br)c32)CC1` [Example 56, (+)-4-(3,10-DIBROMO-8-CHLORO-6,11-DIHYDRO-5H-BENZO[5,6]CYCLO-HEPTA[1,2-b]PYRIDIN-11(R)-YL)-EPSILON-OXO-1-PIPERIDININE HEXANAMIDE], in assay [1] (setting [3]), the half-inhibitory concentration (IC50) worked out at 0.007 µM.

As for `O=C(CCN1C(=O)CCC1=O)N1CCC(C2c3ncc(Br)cc3CCc3cc(Cl)cc(Cl)c32)CC1` (single isomer, unassigned) [Example 11], in assay [1] (setting [3]), the IC50 was found to be 0.076 µM.

Regarding `NC(=O)NCCCC(=O)N1CCC(C2c3ncc(Br)cc3CCc3cc(Cl)cc(Cl)c32)CC1` (single isomer, unassigned; (+)) [Example 31], the IC50 in assay [1] (setting [3]) was 0.058 µM.

The record behind these values is patent EP0929544B1, “TRICYCLIC ANTITUMOR COMPOUNDS BEING FARNESYL PROTEIN TRANSFERASE INHIBITORS” (SCHERING CORPORATION, priority 1996, dated 1998).
